`CN1C(=O)N(c2cc(Cl)cc(Cl)c2)C(=O)[C@]12CN(CN1C[C@H](c3ccc(C#N)cc3)[C@@]3(C1)C(=O)N(c1cc(Cl)cc(Cl)c1)C(=O)N3C)C[C@H]2c1ccc(C#N)cc1` (hydrate or solvate) [Example 6a, Meso Aminal Dimer of 4-[3-(3,5-Dichlorophenyl)-1-methyl-2,4-dioxo-1,3,7-triazaspiro[4.4]non-9-yl]-benzonitrile] showed a melting point of 79 to 109 °C. For `CN1C(=O)N(c2cc(Cl)cc(Cl)c2)C(=O)[C@]12CN(CN1C[C@@H](c3ccc(C#N)cc3)[C@]3(C1)C(=O)N(c1cc(Cl)cc(Cl)c1)C(=O)N3C)C[C@H]2c1ccc(C#N)cc1` (racemic) (hydrate or solvate) [Example 6b, Racemic Aminal Dimer of 4-[3-(3,5-Dichlorophenyl)-1-methyl-2,4-dioxo-1,3,7-triazaspiro[4.4]non-9-yl]-benzonitrile], the melting point was 31 to 47 °C. Compound `COC(=O)c1csc(CN2C[C@@H](c3ccc(C#N)cc3)[C@]3(C2)C(=O)N(c2cc(Cl)cc(Cl)c2)C(=O)N3C)c1.Cl` (stereo in doubt) has a melting point of 204 to 207 °C.
